The values that follow come from patent US7241763B2, “3-furanyl analogs of toxoflavine as kinase inhibitors” (priority 2002, dated 2007).

Bounds are passed on as bounds.

The subject of one data set is A2780 cell. Kind of data set: Cytotox/survival of A2780 cell after 3 days. To be noted: Homo sapiens, 72 h; A2780 ovarian carcinoma cell line, 3 days; read-out: Cytotox/survival of A2780 cell after 3 days - pIC50 values (converted). It counts as cell-based. The protocol: In an alternative assay, the growth inhibitory effect of the compounds was tested on the ovarian carcinoma cell line A2780 using art known cytotoxicity assays such as LIVE/DEAD (Molecular Probes) or MTT.

The target of data set [1] is T1, AKT3 (Homo sapiens, UniProt Q9Y243). Kind of data set: In vitro inhibition of AKT3 using a filter assay (AKT3 pep., Ex. C3). To be noted: histone H2B substrate, filter assay, 25° C. 3 hrs; read-out: AKT3 pep. (Ex. C3): pIC50 values (converted). In kind it is biochemical. How it is done: In Vitro Inhibition of AKT3 using a Filter Assay
T1 sequence (Q9Y243 whole entry, the tested form may be a part): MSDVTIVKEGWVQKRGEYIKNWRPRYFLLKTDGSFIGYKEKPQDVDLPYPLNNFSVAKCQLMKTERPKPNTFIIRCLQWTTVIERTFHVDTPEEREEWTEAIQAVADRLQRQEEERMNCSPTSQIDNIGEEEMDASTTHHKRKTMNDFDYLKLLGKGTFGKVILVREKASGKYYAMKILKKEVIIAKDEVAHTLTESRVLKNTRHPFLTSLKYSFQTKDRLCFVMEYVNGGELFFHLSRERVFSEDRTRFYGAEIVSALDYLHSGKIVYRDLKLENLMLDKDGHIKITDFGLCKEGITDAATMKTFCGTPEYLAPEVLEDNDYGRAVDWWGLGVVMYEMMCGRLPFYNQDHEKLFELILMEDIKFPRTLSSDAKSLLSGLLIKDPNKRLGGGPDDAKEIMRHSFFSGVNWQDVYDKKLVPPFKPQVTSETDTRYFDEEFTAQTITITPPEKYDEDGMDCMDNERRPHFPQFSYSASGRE
In the present AKT3 filter assay, a kinase substrate consisting of a fragment of histone H2B, is incubated with the aforementioned protein in the presence of (^33P) radiolabeled ATP. The (^33P)phosporylated substrate binds to a phosphocellulose cation exchange filter, that can easily be removed from the incubation mixture and counted using a microplate scintillation counter.
AKT3 filter assays were performed at 25° C. for 3 hrs in the presence of 25 mM Hepes, pH 7.0, containing 15 mM MgCl2, 1 mM DTT Each assay was performed in a 100 μl reaction volume containing 111 nM AKT3 (diluted in 25 mM Hepes, pH 7.0, containing 15 mM MgCl2, 1 mM DTT) and the 2.5 μM Histone H2B and 2 nM ATP-P^32. The reaction was terminated by addition of 100 μl 75 mM H3PO4, 90 μl of the assay mixture was filtered through Phosphocellulose cation exchange paper. After five times washing with […] H3PO4, the filterpaper was counting in a microtiterplate scintillation counter.

In data set [2] the target is T1, AKT3. Kind of data set: Cellular inhibition of AKT3 using an ELISA (AKT cel, Ex. C6). It counts as cell-based. Also noted: endogenous in cells; host or cells: MDA-MB 231. To be noted: MDA-MB 231 cells, phosphorylated MAPK ELISA, 30 minutes with compound; read-out: AKT cel (Ex. C6): pIC50 values (converted). The protocol: Cellular Inhibition of AKT3 using an ELISA
The human breast adenocarcinoma cell line (MDA-MB 231) was used in an phosphospecific antibody cell ELISA (PACE) to assess the inhibitory effect of the compounds on AKT3 mediated phosphorylation of mitogen-activated protein kinase (MAPK). In the experiments the MDA-MB 231 cells were serum starved for 24 hours (5% CO2; 37° C.). Subsequently, the cells are incubated at room temperature for 2 hours with 20 μM (in serum free medium) of the phosphatidylinositol 3-kinase inhibitor Ly294002 (Alexis, San Diego, Calif.) prior to the incubation for 30 minutes with the compounds at a final concentration ranging from 1 nM to 3 μM. After fixation (with 4.5% formaldehyde) for 20 minutes and washing with PBS (0.1M) the cells were successively incubated with for 5 minutes with 0.1% Triton X-100 in PBS, for 20 minutes with 0.6% H2O2 and 1 hour with a 2% BSA solution as blocking buffer. […] The OD (490–655 nm) reflected the amount of phosphorylated MAPK and the pIC50 of the compounds was based on their effect with respect to blanco (0.1% DMSO) or an internal reference compound treatment.
A general note: ELISA stands for enzyme-linked immunosorbent assay.

The target in a further data set is T2, CDC25B (Homo sapiens, UniProt P30305).
T2 sequence (P30305 1-580): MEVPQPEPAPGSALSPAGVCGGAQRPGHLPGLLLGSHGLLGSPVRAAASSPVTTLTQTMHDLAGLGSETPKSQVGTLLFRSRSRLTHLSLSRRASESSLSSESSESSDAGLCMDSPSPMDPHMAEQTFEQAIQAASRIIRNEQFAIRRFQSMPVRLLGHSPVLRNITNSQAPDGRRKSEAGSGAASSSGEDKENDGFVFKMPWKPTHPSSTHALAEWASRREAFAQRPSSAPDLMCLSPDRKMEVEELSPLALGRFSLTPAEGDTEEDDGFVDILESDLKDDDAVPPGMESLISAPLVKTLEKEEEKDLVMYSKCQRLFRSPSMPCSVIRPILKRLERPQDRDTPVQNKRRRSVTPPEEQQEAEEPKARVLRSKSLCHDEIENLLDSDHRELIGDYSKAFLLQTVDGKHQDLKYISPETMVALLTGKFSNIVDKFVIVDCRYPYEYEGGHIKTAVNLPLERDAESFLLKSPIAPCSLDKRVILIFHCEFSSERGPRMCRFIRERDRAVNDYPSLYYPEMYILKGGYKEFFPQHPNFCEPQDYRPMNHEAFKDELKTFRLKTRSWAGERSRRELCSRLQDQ
Kind of data set: In vitro inhibition of CDC25B using the fluorogenic substrate 3-OMFP (CDC25B WT, Ex. C5). In kind it is biochemical. To be noted: 3-OMFP substrate, 1 hour room temperature; read-out: CDC25B WT (Ex. C5): pIC50 values (converted). The protocol: In Vitro Inhibition of CDC25B using the Fluorogenic Substrate 3-OMFP
CDC25B phosphatase activity is assessed using the fluorogenic substrate 3-O-methyl-flurorescein-phosphate (3-OMFP). The phosphatase-reaction is performed for 1 hour at room temperature in a black microtiter plate in a volume of 50 μl. The reaction mixture contains 4 μg/mlCDC25B, 15 μM (3-OMFP), 15 mM Tris, 50 mM NaCl, 1 mM DTT, 1 mM Na2EDTA at pH 8.0 and 0.1% DMSO solution at 10^−5 M and the hits are tested in the same conditions in a full dose/response from 10^−5, 3.10^−6, 10^−6 and 3.10^−7 M. The enzymatic activity is determined by measuring the fluorescent signal at 485 nm (ex.) and 538 (em.).

Turning to `Cn1nc(-c2ccc(-c3cccc(Cl)c3)o2)nc2c(=O)n(C3CCN(Cc4ccccc4)CC3)c(=O)nc1-2`, the melting point (commonly the temperature of the solid-liquid transition) was 210.4 to 241 °C.
Regarding `Cn1nc(-c2ccc(-c3ccc(S(=O)(=O)N4CCOCC4)cc3)o2)nc2c(=O)n(C)c(=O)nc1-2`, the melting point was in the range of 264.3 to 273.4 °C.
`Cn1nc(-c2ccc(-c3cccc(CN4CCOCC4)c3)o2)nc2c(=O)n(C)c(=O)nc1-2` [Compound 1] came in with a melting point of 209.3 to 219.8 °C. Besides, the IC50 in the data set on A2780 cell is 61.9 nM. Further, on AKT3 [1], the IC50 is 32.1 nM. Besides, the IC50 at AKT3 [2] is 62.1 nM. Further, the IC50 on CDC25B was under 1 nM.
The corresponding values for `Cn1nc(-c2ccc(-c3cccc(CNS(C)(=O)=O)c3)o2)nc2c(=O)n(C)c(=O)nc1-2` [Compound 2] are 215.1 to 236.6 °C, 490 nM, 72.6 nM, 209 nM and 20.8 nM.
Regarding `Cn1c(=O)nc2n(C3CCCC3)nc(-c3ccc(-c4ccc(CN5CCC(N)CC5)cc4)o3)nc-2c1=O` [Compound 37], the results for the IC50 in the data set with A2780 cell, on AKT3 [1] and on AKT3 [2] were 67.5 nM, 51.8 nM and 34.4 nM, respectively.
As to `CC(c1ccccc1)n1nc(-c2ccc(-c3cccc(Cl)c3)o2)nc2c(=O)n(C)c(=O)nc1-2` (stereo not drawn) [Compound 67], the IC50 in the data set with A2780 cell was 196 nM; at AKT3 [1], 161 nM; at AKT3 [2], 716 nM; at CDC25B, 21.3 nM.
With `CC(C)n1nc(-c2ccc(-c3ccc(CN4CCOCC4)cc3)o2)nc2c(=O)n(C)c(=O)nc1-2` [Compound 78], the IC50 with A2780 cell is 79.8 nM; at AKT3 [1] it was 57.9 nM; on AKT3 [2], 139 nM; on CDC25B, 11.3 nM.
`Cn1c(=O)nc2n(C3CCCC3)nc(-c3ccc(-c4ccc(S(=O)(=O)N5CCOCC5)cc4)o3)nc-2c1=O` [Compound 93] gave a melting point of over 250 °C. Besides, the IC50 in the data set with A2780 cell was 52.8 nM. The IC50 at AKT3 [1] was 53.6 nM. The IC50 on AKT3 [2] is 471 nM. The IC50 at CDC25B was 11 nM.
`Cn1c(=O)nc2n(C3CCCC3)nc(-c3ccc(-c4ccc(CN5CCOCC5)cc4)o3)nc-2c1=O` [Compound 94] yielded a melting point of 255 °C. The IC50 in the data set with A2780 cell was 53 nM. Further, the IC50 on AKT3 [1] was 57.3 nM. At AKT3 [2], the IC50 is 63.8 nM. In addition, at CDC25B, the IC50 was 11.2 nM.
The corresponding values for `Cn1c(=O)nc2n(C3CCNCC3)nc(-c3ccc(-c4cccc(Cl)c4)o3)nc-2c1=O` [Compound 96] are over 250 °C, 10 nM, 62.1 nM, 3.41 nM and 9.18 nM.
The corresponding values for `Cn1c(=O)nc2n(C3CCCC3)nc(-c3ccc(-c4cccc(CN5CCOCC5)c4)o3)nc-2c1=O` [Compound 98] are 155 °C, 107 nM, 107 nM, 111 nM and 15.1 nM.
The molecule `Cn1c(=O)nc2n(C3CCCC3)nc(-c3ccc(-c4ccc(CN5CCC(O)CC5)cc4)o3)nc-2c1=O` [Compound 103] displayed a melting point of over 250 °C. Moreover, in the data set on A2780 cell, the IC50 is 60.8 nM. Further, the IC50 at AKT3 [1] was 85.5 nM. In addition, at AKT3 [2], the IC50 was 65.5 nM. On CDC25B, the IC50 was 16 nM.
In the case of `Cn1c(=O)nc2n(C3CCCC3)nc(-c3ccc(-c4ccc(CN5CCNCC5)cc4)o3)nc-2c1=O` [Compound 105], the melting point was over 276.5 °C. Also, the IC50 in the data set on A2780 cell is 54.5 nM. Further, the IC50 on AKT3 [1] was 115 nM. The IC50 on AKT3 [2] is 98.2 nM. On CDC25B, the IC50 was 16.6 nM.
Taken in the same sequence, the figures for `Cn1c(=O)nc2n(C3CCCC3)nc(-c3ccc(-c4ccc(CN5CCN(CCO)CC5)cc4)o3)nc-2c1=O` [Compound 106] were 175 °C, 70.3 nM, 84.3 nM, 102 nM and 15.6 nM.
Molecule `CN(CCO)Cc1ccc(-c2ccc(-c3nc4c(=O)n(C)c(=O)nc-4n(C4CCCC4)n3)o2)cc1` [Compound 107] registered a melting point of over 250 °C. Moreover, in the data set on A2780 cell, the IC50 was 60.8 nM. Further, at AKT3 [1], the IC50 is 39.5 nM. Further, the IC50 on AKT3 [2] is 95.7 nM. Moreover, the IC50 on CDC25B was 16 nM.
`Cn1c(=O)nc2n(C3CCCC3)nc(-c3ccc(-c4ccc(CNCCO)cc4)o3)nc-2c1=O` [Compound 113]: the melting point turned out to be 240 °C. The IC50 in the data set on A2780 cell was 45.1 nM. Also, at AKT3 [1], the IC50 was 32.5 nM. Besides, on AKT3 [2], the IC50 is 34.8 nM. Further, the IC50 at CDC25B is 14.2 nM.
`Cn1c(=O)nc2n(C3CCN(S(N)(=O)=O)CC3)nc(-c3ccc(-c4cccc(Cl)c4)o3)nc-2c1=O` [Compound 114] registered a melting point of over 250 °C. Moreover, the IC50 in the data set on A2780 cell was 110 nM. For the same molecule, the IC50 on AKT3 [1] was 45.2 nM. For the same molecule, the IC50 at AKT3 [2] is 187 nM. Also, on CDC25B, the IC50 is 15.2 nM.
In turn, `CONCc1ccc(-c2ccc(-c3nc4c(=O)n(C)c(=O)nc-4n(C4CCCC4)n3)o2)cc1` [Compound 115] returned a melting point of 140 °C. In the data set on A2780 cell, the IC50 is 46.9 nM. Besides, the IC50 on AKT3 [1] is 48.1 nM. Besides, the IC50 at AKT3 [2] is 74.8 nM. Moreover, the IC50 on CDC25B is 13.2 nM.
